Laboratory results as given in ChEMBL document CHEMBL1201862, “PubChem BioAssay data set” (2004).
Blank lines part the entries; values can stand above or below the molecule they belong to. The source made the active and inactive calls.

Key:
[1] = molecular target: T1, Acyl-homoserine lactone acylase PvdQ (Pseudomonas aeruginosa (strain LESB58), UniProt Q9I194); experiment: P. aeruginosa PvdQ acylase inhibitors, dose response, biochemical, fluorescence, plate reader and imaging, cherry-picks (AID 493231)
T1 sequence (Q9I194 whole entry): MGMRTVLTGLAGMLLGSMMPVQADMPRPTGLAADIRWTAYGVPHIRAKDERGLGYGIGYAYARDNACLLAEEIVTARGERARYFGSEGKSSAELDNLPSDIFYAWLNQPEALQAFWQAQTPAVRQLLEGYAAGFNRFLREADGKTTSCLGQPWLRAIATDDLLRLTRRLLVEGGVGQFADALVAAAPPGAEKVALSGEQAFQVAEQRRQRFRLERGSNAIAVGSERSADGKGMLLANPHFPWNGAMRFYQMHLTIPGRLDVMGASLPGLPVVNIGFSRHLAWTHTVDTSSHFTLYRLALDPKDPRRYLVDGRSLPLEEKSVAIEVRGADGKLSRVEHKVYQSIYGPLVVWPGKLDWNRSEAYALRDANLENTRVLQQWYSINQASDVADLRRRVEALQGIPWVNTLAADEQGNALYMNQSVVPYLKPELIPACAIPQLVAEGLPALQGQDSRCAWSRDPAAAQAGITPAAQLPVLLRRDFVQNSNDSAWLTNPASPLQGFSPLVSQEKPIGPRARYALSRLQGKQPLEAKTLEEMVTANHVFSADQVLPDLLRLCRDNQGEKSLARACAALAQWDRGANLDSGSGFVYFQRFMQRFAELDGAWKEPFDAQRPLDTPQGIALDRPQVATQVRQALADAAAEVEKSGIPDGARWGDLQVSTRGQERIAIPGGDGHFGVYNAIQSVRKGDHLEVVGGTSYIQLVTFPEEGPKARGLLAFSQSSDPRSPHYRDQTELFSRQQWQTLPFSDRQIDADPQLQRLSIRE

[2] = molecular target: T2, Corticotropin-releasing factor receptor 2/Corticotropin-releasing factor-binding protein (Homo sapiens, UniProt P24387+Q13324); experiment: Dose Response confirmation of uHTS hits for small molecule antagonists of the CRF-binding protein and CRF-R2 receptor complex.; format: functional; conditions: read-out: IC50_Mean
T2 sequence (Q13324 whole entry): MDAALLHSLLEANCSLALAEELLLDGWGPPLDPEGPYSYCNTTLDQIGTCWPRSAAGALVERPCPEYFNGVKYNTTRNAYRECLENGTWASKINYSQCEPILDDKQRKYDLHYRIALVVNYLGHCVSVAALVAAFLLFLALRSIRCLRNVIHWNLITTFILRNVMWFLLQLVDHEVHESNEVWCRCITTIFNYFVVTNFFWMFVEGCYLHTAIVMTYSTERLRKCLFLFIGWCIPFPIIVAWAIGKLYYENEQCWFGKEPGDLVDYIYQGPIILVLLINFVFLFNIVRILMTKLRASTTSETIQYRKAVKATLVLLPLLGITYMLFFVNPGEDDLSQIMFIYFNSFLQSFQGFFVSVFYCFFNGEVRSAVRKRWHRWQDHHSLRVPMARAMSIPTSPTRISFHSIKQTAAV
T2 sequence (P24387 whole entry): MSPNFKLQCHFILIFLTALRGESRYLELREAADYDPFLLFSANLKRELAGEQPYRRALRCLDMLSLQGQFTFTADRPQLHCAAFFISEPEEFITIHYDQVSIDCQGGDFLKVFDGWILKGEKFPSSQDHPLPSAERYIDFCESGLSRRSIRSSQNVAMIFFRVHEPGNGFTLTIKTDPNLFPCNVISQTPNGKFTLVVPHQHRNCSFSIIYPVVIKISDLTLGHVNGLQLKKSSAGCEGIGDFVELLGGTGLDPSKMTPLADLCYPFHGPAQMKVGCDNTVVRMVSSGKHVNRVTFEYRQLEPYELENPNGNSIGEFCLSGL

[3] = molecular target: T2, Corticotropin-releasing factor receptor 2/Corticotropin-releasing factor-binding protein; experiment: activators of CRF receptor 2 with binding protein – uHTS hits, confirmation (AID 602473); format: functional; conditions: read-out: EC50_Mean
[4] = molecular target: Heat shock protein HSP 90-alpha (Homo sapiens, UniProt P07900); format: functional, organism-based
[5] = molecular target: Beta-galactosidase (Escherichia coli, UniProt Q8VNN2); experiment: beta-galactosidase enzyme inhibitors and activators, dose response, artefact control for CCR6 antagonist project, biochemical, E. coli enzyme, set 3 (AID 504712); format: functional
Chain of Beta-galactosidase (Q8VNN2 whole entry): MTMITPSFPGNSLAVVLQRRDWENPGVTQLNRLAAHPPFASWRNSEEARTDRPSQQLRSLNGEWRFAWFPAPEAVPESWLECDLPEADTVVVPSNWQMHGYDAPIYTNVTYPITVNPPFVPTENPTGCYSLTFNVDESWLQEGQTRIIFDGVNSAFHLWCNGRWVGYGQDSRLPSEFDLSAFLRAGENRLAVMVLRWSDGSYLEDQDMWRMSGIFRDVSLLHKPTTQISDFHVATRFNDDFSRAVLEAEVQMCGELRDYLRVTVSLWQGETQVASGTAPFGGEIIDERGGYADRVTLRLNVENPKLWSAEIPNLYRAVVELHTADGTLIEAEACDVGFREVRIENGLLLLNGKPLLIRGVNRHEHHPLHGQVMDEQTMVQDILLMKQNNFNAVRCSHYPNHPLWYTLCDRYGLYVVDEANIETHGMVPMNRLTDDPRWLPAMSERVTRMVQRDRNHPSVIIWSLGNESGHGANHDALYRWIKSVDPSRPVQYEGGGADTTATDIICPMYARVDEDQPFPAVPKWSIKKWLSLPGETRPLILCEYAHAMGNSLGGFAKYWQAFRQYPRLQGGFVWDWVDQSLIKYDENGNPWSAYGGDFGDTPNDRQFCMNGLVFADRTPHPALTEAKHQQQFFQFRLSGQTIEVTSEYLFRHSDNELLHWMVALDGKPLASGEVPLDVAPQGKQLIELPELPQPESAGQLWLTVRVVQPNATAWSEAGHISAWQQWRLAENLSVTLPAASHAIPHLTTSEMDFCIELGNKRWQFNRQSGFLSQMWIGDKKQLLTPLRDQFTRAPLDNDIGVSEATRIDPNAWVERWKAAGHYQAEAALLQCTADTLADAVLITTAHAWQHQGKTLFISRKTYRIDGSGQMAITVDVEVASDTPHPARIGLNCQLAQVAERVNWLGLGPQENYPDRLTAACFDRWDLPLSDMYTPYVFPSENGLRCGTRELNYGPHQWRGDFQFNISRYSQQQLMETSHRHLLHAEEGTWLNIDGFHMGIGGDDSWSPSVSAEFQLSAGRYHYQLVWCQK

[6] = molecular target: T3, C-C chemokine receptor type 6 (Homo sapiens, UniProt P51684); experiment: CCR6 receptor antagonists, dose response, cell-based, luminescent beta-arrestin readout (AID 504728); format: functional
T3 sequence (P51684 whole entry): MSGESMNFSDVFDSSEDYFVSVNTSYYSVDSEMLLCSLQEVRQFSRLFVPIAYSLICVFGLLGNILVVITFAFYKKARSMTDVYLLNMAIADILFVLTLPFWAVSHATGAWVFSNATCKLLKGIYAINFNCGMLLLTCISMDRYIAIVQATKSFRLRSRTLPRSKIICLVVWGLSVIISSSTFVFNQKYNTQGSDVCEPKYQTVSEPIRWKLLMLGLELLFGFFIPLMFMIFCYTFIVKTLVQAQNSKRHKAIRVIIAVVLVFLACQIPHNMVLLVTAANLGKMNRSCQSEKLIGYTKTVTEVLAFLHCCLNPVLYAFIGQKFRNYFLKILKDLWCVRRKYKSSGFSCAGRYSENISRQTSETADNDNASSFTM

[7] = molecular target: T4, Voltage-gated N-type calcium channel alpha-1B subunit/Amyloid beta A4 precursor protein-binding family A member 1 (Homo sapiens, UniProt Q00975+Q02410); format: protein assay
T4 sequence (Q00975 whole entry): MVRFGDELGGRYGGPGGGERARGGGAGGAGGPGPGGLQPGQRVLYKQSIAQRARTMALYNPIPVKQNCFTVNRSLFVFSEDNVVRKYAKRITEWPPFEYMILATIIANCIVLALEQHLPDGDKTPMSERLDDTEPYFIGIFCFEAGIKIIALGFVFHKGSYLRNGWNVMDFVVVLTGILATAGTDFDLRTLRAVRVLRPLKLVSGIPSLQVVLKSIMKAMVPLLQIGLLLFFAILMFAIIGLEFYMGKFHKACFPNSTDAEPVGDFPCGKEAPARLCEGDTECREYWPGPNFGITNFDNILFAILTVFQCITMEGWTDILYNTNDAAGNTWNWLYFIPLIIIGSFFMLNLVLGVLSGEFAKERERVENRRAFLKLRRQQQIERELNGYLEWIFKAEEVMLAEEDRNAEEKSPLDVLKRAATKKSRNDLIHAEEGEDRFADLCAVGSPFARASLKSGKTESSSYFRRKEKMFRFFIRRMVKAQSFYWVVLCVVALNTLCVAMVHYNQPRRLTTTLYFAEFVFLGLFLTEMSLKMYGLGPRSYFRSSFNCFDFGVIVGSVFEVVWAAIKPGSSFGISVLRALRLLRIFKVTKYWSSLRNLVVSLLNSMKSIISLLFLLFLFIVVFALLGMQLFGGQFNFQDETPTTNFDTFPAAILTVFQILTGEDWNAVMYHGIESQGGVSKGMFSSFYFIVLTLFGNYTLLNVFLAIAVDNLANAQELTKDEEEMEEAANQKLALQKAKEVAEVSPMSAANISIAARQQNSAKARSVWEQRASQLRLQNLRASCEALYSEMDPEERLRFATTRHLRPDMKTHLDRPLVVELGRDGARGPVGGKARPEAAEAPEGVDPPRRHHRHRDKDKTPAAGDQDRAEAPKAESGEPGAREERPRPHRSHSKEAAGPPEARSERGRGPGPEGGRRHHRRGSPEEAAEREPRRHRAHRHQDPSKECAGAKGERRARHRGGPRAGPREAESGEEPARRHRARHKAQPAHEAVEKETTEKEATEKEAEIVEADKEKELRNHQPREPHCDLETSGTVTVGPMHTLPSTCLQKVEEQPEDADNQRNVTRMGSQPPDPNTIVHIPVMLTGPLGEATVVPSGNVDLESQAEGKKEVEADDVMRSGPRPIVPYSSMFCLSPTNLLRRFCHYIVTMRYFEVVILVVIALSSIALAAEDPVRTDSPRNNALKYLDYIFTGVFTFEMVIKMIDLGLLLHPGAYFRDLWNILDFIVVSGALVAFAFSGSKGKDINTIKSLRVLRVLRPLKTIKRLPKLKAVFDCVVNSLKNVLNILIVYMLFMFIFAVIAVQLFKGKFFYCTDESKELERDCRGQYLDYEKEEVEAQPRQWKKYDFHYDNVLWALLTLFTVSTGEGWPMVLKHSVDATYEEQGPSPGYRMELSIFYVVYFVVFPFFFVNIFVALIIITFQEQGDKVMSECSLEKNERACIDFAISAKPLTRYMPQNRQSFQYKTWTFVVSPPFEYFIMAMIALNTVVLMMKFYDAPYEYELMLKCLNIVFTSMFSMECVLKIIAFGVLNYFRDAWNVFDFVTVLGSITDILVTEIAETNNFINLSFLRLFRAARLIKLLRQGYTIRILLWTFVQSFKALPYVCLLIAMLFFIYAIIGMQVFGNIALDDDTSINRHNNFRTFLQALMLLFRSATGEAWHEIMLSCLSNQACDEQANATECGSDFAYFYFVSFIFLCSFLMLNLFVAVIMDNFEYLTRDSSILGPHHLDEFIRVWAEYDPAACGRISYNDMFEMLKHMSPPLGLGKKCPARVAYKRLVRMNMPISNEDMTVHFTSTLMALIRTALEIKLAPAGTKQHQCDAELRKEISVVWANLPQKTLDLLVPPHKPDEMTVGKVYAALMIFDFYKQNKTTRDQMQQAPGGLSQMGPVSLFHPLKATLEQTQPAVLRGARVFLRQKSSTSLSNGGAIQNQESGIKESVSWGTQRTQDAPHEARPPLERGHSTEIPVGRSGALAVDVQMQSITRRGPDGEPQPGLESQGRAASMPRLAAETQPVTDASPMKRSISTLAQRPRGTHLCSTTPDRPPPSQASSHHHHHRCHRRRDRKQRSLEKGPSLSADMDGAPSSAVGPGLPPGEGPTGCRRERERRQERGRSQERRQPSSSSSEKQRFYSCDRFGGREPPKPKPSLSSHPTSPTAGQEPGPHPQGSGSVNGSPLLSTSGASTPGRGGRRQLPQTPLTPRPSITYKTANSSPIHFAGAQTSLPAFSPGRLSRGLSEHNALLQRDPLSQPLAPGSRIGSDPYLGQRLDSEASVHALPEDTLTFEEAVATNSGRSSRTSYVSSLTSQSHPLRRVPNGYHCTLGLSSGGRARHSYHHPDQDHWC
T4 sequence (Q02410 whole entry): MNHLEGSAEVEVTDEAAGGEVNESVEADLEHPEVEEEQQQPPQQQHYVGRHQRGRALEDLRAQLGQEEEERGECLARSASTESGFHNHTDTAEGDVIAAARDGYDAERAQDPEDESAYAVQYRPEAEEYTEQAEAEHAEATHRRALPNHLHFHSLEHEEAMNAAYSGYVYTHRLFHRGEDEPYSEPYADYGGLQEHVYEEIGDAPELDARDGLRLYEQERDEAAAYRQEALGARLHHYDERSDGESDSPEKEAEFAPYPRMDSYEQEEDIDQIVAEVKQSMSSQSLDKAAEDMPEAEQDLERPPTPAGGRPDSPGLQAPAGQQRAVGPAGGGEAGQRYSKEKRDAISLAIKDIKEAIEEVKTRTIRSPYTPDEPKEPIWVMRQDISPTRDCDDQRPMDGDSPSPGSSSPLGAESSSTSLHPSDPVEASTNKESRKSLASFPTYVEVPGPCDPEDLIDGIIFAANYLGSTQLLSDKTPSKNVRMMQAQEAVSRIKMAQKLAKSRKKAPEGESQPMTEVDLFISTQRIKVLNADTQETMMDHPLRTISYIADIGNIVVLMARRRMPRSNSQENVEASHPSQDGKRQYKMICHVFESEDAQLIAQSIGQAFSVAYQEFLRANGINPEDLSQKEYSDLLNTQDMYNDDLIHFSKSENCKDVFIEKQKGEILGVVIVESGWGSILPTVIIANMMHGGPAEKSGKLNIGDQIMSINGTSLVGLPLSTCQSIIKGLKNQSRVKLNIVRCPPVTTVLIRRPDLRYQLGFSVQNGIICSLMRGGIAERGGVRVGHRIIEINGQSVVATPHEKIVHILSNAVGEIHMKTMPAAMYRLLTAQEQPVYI

[8] = molecular target: T4, Voltage-gated N-type calcium channel alpha-1B subunit/Amyloid beta A4 precursor protein-binding family A member 1; format: protein assay; remark: listed apart in the source
[9] = molecular target: Alkaline phosphatase, placental type (Homo sapiens, UniProt P05187); experiment: PLAP enzyme inhibitors, confirmation, biochemical, luminescence (AID 1512); format: functional
Chain of Alkaline phosphatase, placental type (P05187 whole entry): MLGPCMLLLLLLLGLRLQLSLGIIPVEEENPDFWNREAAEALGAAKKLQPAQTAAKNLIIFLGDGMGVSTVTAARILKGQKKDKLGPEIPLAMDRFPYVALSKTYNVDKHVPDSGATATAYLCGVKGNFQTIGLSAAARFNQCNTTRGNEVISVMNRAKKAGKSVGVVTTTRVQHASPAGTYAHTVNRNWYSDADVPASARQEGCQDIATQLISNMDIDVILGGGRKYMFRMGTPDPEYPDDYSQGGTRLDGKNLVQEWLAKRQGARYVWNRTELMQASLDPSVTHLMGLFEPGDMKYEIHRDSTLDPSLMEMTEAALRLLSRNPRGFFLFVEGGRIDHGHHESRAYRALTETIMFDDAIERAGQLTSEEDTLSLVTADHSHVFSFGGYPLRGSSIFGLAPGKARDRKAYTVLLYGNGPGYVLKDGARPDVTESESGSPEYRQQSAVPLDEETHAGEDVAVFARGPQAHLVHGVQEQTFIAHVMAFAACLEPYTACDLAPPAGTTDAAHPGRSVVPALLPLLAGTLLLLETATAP

[10] = molecular target: Induced myeloid leukemia cell differentiation protein Mcl-1 (Homo sapiens, UniProt Q07820); format: functional
Chain of Induced myeloid leukemia cell differentiation protein Mcl-1 (Q07820 whole entry): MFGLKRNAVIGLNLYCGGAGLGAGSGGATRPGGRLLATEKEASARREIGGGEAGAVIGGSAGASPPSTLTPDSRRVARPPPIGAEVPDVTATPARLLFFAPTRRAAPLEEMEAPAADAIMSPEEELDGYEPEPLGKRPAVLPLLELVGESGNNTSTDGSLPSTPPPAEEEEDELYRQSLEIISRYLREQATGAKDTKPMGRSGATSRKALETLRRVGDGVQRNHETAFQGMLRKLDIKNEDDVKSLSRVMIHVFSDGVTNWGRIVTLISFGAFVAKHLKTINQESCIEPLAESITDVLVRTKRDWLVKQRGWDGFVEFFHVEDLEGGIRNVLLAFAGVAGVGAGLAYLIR

[11] = molecular target: T5, Aminopeptidase N (Plasmodium falciparum FcB1/Columbia, UniProt O96935); experiment: P. falciparum M1AAP inhibitors, biochemical, fluorogenic H-Leu-NHMec substrate, 1536-well (AID 1445); design: species or system Plasmodium falciparum 3D7, 3D7
T5 sequence (O96935 whole entry): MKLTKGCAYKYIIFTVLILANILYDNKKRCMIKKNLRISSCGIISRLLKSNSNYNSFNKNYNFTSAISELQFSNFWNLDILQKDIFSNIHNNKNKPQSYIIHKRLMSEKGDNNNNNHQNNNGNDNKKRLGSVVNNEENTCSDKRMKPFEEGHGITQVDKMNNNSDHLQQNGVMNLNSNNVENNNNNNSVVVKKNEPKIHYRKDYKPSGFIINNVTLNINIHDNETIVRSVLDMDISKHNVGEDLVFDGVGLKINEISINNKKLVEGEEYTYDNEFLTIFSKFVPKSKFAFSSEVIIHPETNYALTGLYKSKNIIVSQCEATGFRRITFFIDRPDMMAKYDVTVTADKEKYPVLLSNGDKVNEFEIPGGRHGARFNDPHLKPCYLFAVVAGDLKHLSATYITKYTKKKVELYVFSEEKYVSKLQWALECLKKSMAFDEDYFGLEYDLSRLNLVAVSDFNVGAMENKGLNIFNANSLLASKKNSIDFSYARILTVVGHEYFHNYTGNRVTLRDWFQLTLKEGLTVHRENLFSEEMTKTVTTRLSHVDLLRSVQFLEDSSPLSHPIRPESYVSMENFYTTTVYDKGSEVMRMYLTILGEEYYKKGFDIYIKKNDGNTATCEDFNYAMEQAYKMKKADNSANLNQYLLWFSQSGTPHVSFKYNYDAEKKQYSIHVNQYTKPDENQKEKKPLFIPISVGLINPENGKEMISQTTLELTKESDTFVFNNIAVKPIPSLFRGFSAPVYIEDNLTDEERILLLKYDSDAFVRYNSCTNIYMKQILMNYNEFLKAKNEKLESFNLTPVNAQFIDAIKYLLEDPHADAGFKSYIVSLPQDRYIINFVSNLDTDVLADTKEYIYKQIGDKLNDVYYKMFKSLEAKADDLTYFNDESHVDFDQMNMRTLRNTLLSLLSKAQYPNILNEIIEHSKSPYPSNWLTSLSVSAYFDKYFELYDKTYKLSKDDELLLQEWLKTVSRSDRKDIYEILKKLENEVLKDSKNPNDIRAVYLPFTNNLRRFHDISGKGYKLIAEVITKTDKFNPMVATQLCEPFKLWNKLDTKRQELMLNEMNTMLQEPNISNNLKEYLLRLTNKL

SMILES: O=C(NC1CCS(=O)(=O)C1)c1cccc(Br)c1 (stereo not given)
AC50 [1]: 8.94 µM (active)

SMILES: COc1cccc(C(=O)CC(C#N)c2ccc(F)cc2)c1 (stereo not given)
AC50 [1]: 6.55 µM (active)

SMILES: Cn1cc(Br)c(C(=O)NNC(=O)c2cccc(Br)c2)n1
IC50 [9]: > 100 µM (inactive)

SMILES: CCOC(=O)N1CCN(c2ccc(Cl)cc2)CC1
AC50 [1]: 7.18 µM (active)

SMILES: CC(=O)Nc1ccc(C2=NN=C(Nc3cccc(S(=O)(=O)N(C)C)c3)SC2)cc1
IC50 [10]: 4.2 µM (active)
IC50 [7]: 3.56 µM (active)
IC50 [8]: > 50 µM (inactive)

Now from value to molecule:

IC50 [2]: > 47.1 µM (inactive)
EC50 [3]: > 53 µM (inactive)
AC50 [4]: 0.902 µM (active)
IC50 [5]: > 66.6 µM (inactive)
IC50 [6]: 21.1 µM (inactive)
SMILES: COc1ccc(/C=C2/CCC(CN3CCOCC3)C2=O)cc1 (stereo not given)

IC50 [7]: 10.1 µM (active)
IC50 [8]: 4.01 µM (active)
SMILES: C/C=C\C=C/C(=O)Nc1cccc(C2=NOC3(C2)C[C@@H](C(N)=O)N(C(=O)/C=C/C=C\C)C3)c1 (stereo not given in full)

IC50 [11]: 50.2 µM (active)
SMILES: O=C1N=C(NS(=O)(=O)Cc2ccccc2)S/C1=C/c1cccc([N+](=O)[O-])c1
